Laboratory results as given in PubChem BioAssay AID206 (DTP/NCI, 2004).
Several values for one entry are separate records, joined by “and”; a condition that tells them apart may be missing. Identical values can stand only once. Records with an inconclusive call do not appear.

Tested on: nude mice, HT29 intrarenal xenograft, tumor weight T/C
Assay: NCI In Vivo Anticancer Drug Screen. Data for tumor model HT29;CX-1 Human Adenocarcinoma (MER+) (intrarenal inoculation) in NU/NU Swiss (nude) mice
Conditions: endpoint: mean tumor weight change, higher = larger tumour
Procedure, shortened: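 Tumor-bearing mice received test compound or vehicle, and tumor size or survival was recorded. Values are the treated-group measurement divided by the vehicle-treated control measurement.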

[1] = dose: 100.0 mg/kg/injection, schedule: Q04DX004 (sc), vehicle: Klucel (hydroxypropylcellulose) (HPC)
[2] = dose: 400.0 mg/kg/injection, schedule: Q04DX004 (sc), vehicle: Klucel (hydroxypropylcellulose) (HPC)
[3] = dose: 50.0 mg/kg/injection, schedule: Q04DX004 (sc), vehicle: saline with Tween-80
[4] = dose: 100.0 mg/kg/injection, schedule: Q04DX004 (sc), vehicle: saline with Tween-80
[5] = dose: 12.5 mg/kg/injection, schedule: Q01DX010 (sc), vehicle: Klucel (hydroxypropylcellulose) (HPC)
[6] = dose: 25.0 mg/kg/injection, schedule: Q01DX010 (sc), vehicle: Klucel (hydroxypropylcellulose) (HPC)
[7] = dose: 300.0 mg/kg/injection, schedule: Q04DX004 (sc), vehicle: Klucel (hydroxypropylcellulose) (HPC)
[8] = dose: 600.0 mg/kg/injection, schedule: Q04DX004 (sc), vehicle: Klucel (hydroxypropylcellulose) (HPC)

Structure (SMILES): O=C1CC2(C(=O)N1CN1CCCCC1)c1ccccc1-c1ccccc12
- T/C [1]: 43 % of control
- T/C [2]: 69 % of control
- T/C (dose: 800.0 mg/kg/injection, schedule: Q04DX004 (sc), vehicle: Klucel (hydroxypropylcellulose) (HPC)): 70 % of control

Structure (SMILES): COc1ccc(S(=O)(=O)N/N=C/C(=O)O)cc1
- T/C (dose: 25.0 mg/kg/injection, schedule: Q04DX004 (sc), vehicle: saline with Tween-80): 94 % of control
- T/C [3]: 90 % of control and 102 % of control
- T/C [4]: 59 % of control and 82 % of control

Structure (SMILES): CCCC(=O)O
- T/C (dose: 100.0 mg/kg/injection, schedule: Q01DX010 (sc), vehicle: saline): 69 % of control
- T/C (dose: 200.0 mg/kg/injection, schedule: Q01DX010 (sc), vehicle: saline): 65 % of control
- T/C (dose: 400.0 mg/kg/injection, schedule: Q01DX010 (sc), vehicle: saline): 110 % of control
- T/C (dose: 800.0 mg/kg/injection, schedule: Q01DX010 (sc), vehicle: saline): 79 % of control

Structure (SMILES): C=C1C(=O)OCC2C(C(=O)O)=CC3C(C)C(C)=CC123 (centres undefined)
- T/C [5]: 71 % of control
- T/C [6]: 94 % of control

Structure (SMILES): CN(C)CCCNc1c2ccccc2nc2cccc([N+](=O)[O-])c12
- T/C (dose: 0.37 mg/kg/injection, schedule: Q04DX004 (sc), vehicle: saline): 226 % of control

Structure (SMILES): C[C@]12C=CC(=O)C=C1CC[C@@H]1[C@@H]2[C@@H](O)C[C@@]2(C)[C@H]1CC[C@]2(O)C(=O)CO
- T/C [5]: 79 % of control
- T/C [6]: 112 % of control
- T/C (dose: 50.0 mg/kg/injection, schedule: Q01DX010 (sc), vehicle: Klucel (hydroxypropylcellulose) (HPC)): 66 % of control
- T/C (dose: 100.0 mg/kg/injection, schedule: Q01DX010 (sc), vehicle: Klucel (hydroxypropylcellulose) (HPC)): 83 % of control

Structure (SMILES): CCCCNC(C)[C@]1(O)Cc2c(O)c3c(c(O)c2[C@@H](OC2CC(N)C(O)C(C)O2)C1)C(=O)c1c(OC)cccc1C3=O (some centres undefined)
- T/C (dose: 3.12 mg/kg/injection, schedule: Q01DX010 (sc), vehicle: saline): 179 % of control
- T/C (dose: 12.5 mg/kg/injection, schedule: Q01DX010 (sc), vehicle: saline): 103 % of control
- T/C (dose: 25.0 mg/kg/injection, schedule: Q01DX010 (sc), vehicle: saline): 94 % of control

Structure (SMILES): Nc1nc(=O)n(C2OC(CO)C(O)C2O)cc1F (centres undefined)
- T/C (dose: 150.0 mg/kg/injection, schedule: Q04DX004 (ip), vehicle: saline): 122 % of control
- T/C (dose: 300.0 mg/kg/injection, schedule: Q04DX004 (ip), vehicle: saline): 56 % of control
- T/C (dose: 600.0 mg/kg/injection, schedule: Q04DX004 (ip), vehicle: saline): 83 % of control
- T/C (dose: 600.0 mg/kg/injection, schedule: Q04DX004 (sc), vehicle: saline): 26 % of control
- T/C (dose: 1200.0 mg/kg/injection, schedule: Q04DX004 (ip), vehicle: saline): 42 % of control
- T/C (dose: 1200.0 mg/kg/injection, schedule: Q04DX004 (sc), vehicle: saline): 11 % of control

Structure (SMILES): O=CC(O)C(O)C(O)C(O)C(=O)O.[NH-]C1CCCCC1[NH-].[Pt+2] (centres undefined)
- T/C (dose: 9.38 mg/kg/injection, schedule: Q04DX004 (sc), vehicle: suspension in saline): 44 % of control
- T/C (dose: 18.75 mg/kg/injection, schedule: Q04DX004 (sc), vehicle: suspension in saline): 62 % of control

Structure (SMILES): CC(=O)OCC1OC(n2ccc(N)nc2=O)C(OC(C)=O)C1OC(C)=O (centres undefined)
- T/C (dose: 300.0 mg/kg/injection, schedule: Q04DX004 (sc), vehicle: suspension in saline): 43 % of control
- T/C (dose: 600.0 mg/kg/injection, schedule: Q04DX004 (sc), vehicle: suspension in saline): 50 % of control
- T/C (dose: 1200.0 mg/kg/injection, schedule: Q04DX004 (sc), vehicle: suspension in saline): 43 % of control
- T/C (dose: 2400.0 mg/kg/injection, schedule: Q04DX004 (sc), vehicle: suspension in saline): 24 % of control

Structure (SMILES): COC(C(=O)C(O)C(C)O)C1Cc2cc3cc(OC4CC(OC(C)=O)C(OC5CC(O)C(OC)C(C)O5)C(C)O4)cc(O)c3c(O)c2C(=O)C1OC1CC(OC2CC(OC3CC(C)(O)C(OC(=O)C(C)C)C(C)O3)C(O)C(C)O2)C(O)C(C)O1 (centres undefined)
- T/C (dose: 0.5 mg/kg/injection, schedule: Q01DX010 (sc), vehicle: saline with Tween-80): 73 % of control
- T/C (dose: 1.0 mg/kg/injection, schedule: Q01DX010 (sc), vehicle: saline with Tween-80): 97 % of control
- T/C (dose: 1.0 mg/kg/injection, schedule: Q04DX004 (sc), vehicle: saline with Tween-80): 95 % of control
- T/C (dose: 2.0 mg/kg/injection, schedule: Q01DX010 (sc), vehicle: saline with Tween-80): 105 % of control
- T/C (dose: 2.0 mg/kg/injection, schedule: Q04DX004 (sc), vehicle: saline with Tween-80): 47 % of control
- T/C (dose: 4.0 mg/kg/injection, schedule: Q04DX004 (sc), vehicle: saline with Tween-80): 50 % of control

Structure (SMILES): CCc1ccccc1N1CCN(C(=O)c2cc(OC)c(OC)c(OC)c2)CC1
- T/C [7]: 57 % of control
- T/C [8]: 120 % of control
- T/C (dose: 1200.0 mg/kg/injection, schedule: Q04DX004 (sc), vehicle: Klucel (hydroxypropylcellulose) (HPC)): 84 % of control

Structure (SMILES): CCCCCCCCSC1=C(Cl)C(=O)C(OC)=C(OC)C1=O
- T/C (dose: 18.0 mg/kg/injection, schedule: Q04DX004 (sc), vehicle: saline with Tween-80): 96 % of control
- T/C (dose: 36.0 mg/kg/injection, schedule: Q04DX004 (sc), vehicle: saline with Tween-80): 82 % of control
- T/C (dose: 72.0 mg/kg/injection, schedule: Q04DX004 (sc), vehicle: saline with Tween-80): 118 % of control
- T/C (dose: 144.0 mg/kg/injection, schedule: Q04DX004 (sc), vehicle: saline with Tween-80): 59 % of control

Structure (SMILES): Cc1cc(Nc2ccc3c(c2)OCO3)c2cc3c(cc2n1)OCO3
- T/C [7]: 79 % of control
- T/C [8]: 198 % of control

Structure (SMILES): CN(C)[C@@H]1C(=O)C(C(N)=O)=C(O)[C@@]2(O)C(=O)C3=C(O)c4c(O)ccc(Cl)c4[C@@](C)(O)[C@H]3C[C@@H]12
- T/C (dose: 200.0 mg/kg/injection, schedule: Q04DX004 (sc), vehicle: saline): 62 % of control
- T/C (dose: 400.0 mg/kg/injection, schedule: Q04DX004 (sc), vehicle: saline): 87 % of control
- T/C (dose: 800.0 mg/kg/injection, schedule: Q04DX004 (sc), vehicle: saline): 82 % of control
- T/C (dose: 1600.0 mg/kg/injection, schedule: Q04DX004 (sc), vehicle: saline): 66 % of control

Structure (SMILES): COC12C(COC(N)=O)C3=C(C(=O)C(C)=C(N)C3=O)N1CC1C2N1C (centres undefined)
- T/C (dose: 2.0 mg/kg/injection, schedule: Q01DX010 (sc), vehicle: saline): 114 % of control
- T/C (dose: 4.0 mg/kg/injection, schedule: Q01DX010 (sc), vehicle: saline): 8 % of control and 12 % of control

Structure (SMILES): O=S(=O)(SC(S(=O)(=O)c1ccccc1)S(=O)(=O)c1ccccc1)c1ccccc1
- T/C [1]: 246 % of control
- T/C (dose: 200.0 mg/kg/injection, schedule: Q04DX004 (sc), vehicle: Klucel (hydroxypropylcellulose) (HPC)): 203 % of control
- T/C [2]: 246 % of control

Structure (SMILES): Cc1c2ccccc2cc2cccc[n+]12
- T/C (dose: 7.5 mg/kg/injection, schedule: Q04DX004 (sc), vehicle: saline): 116 % of control
- T/C (dose: 15.0 mg/kg/injection, schedule: Q04DX004 (sc), vehicle: saline): 63 % of control
- T/C (dose: 30.0 mg/kg/injection, schedule: Q04DX004 (sc), vehicle: saline): 93 % of control

Structure (SMILES): CO[C@@]12[C@H](COC(N)=O)C3=C(C(=O)C(C)=C(N)C3=O)N1C[C@@H]1N[C@@H]12
- T/C (dose: 0.63 mg/kg/injection, schedule: Q04DX004 (sc), vehicle: saline): 71 % of control
- T/C (dose: 1.5 mg/kg/injection, schedule: Q04DX004 (sc), vehicle: saline): 10 % of control
- T/C (dose: 2.0 mg/kg/injection, schedule: Q04DX004 (ip), vehicle: saline): 29 % of control
- T/C (dose: 3.0 mg/kg/injection, schedule: Q04DX003 (sc), vehicle: saline): 13 % of control
- T/C (dose: 3.0 mg/kg/injection, schedule: Q04DX004 (ip), vehicle: saline): 8 % of control
- T/C (dose: 3.0 mg/kg/injection, schedule: Q04DX004 (sc), vehicle: saline): -59 % of control
- T/C (dose: 4.5 mg/kg/injection, schedule: Q04DX004 (ip), vehicle: saline): -82 % of control
- T/C (dose: 6.0 mg/kg/injection, schedule: Q04DX003 (sc), vehicle: saline): -37 % of control

Structure (SMILES): C=C1N(C)c2ccccc2C1(C)C
- T/C [3]: 66 % of control
- T/C [4]: 73 % of control
- T/C (dose: 200.0 mg/kg/injection, schedule: Q04DX004 (sc), vehicle: saline with Tween-80): 94 % of control

Structure (SMILES): O=S1(=O)C=C(c2ccccc2)C(c2ccccc2)=C1
- T/C (dose: 150.0 mg/kg/injection, schedule: Q04DX004 (sc), vehicle: saline with Tween-80): 58 % of control
- T/C (dose: 300.0 mg/kg/injection, schedule: Q04DX004 (sc), vehicle: saline with Tween-80): 83 % of control
- T/C (dose: 600.0 mg/kg/injection, schedule: Q04DX004 (sc), vehicle: saline with Tween-80): 97 % of control
- T/C (dose: 1200.0 mg/kg/injection, schedule: Q04DX004 (sc), vehicle: saline with Tween-80): 85 % of control
